We go through one compound from patent US20040229791A1, “Compositions and methods of modulating TGF-beta activity by fatty acids” (priority 2002, published 2004).

Structures are written as SMILES.

One test concerns the target T1, native α2M (Homo sapiens, UniProt P01023).
T1 construct: was purified from pooled citrate-treate human plasma; from tissue; host or cells: pooled citrate-treated human plasma
T1 sequence (P01023 24-1474): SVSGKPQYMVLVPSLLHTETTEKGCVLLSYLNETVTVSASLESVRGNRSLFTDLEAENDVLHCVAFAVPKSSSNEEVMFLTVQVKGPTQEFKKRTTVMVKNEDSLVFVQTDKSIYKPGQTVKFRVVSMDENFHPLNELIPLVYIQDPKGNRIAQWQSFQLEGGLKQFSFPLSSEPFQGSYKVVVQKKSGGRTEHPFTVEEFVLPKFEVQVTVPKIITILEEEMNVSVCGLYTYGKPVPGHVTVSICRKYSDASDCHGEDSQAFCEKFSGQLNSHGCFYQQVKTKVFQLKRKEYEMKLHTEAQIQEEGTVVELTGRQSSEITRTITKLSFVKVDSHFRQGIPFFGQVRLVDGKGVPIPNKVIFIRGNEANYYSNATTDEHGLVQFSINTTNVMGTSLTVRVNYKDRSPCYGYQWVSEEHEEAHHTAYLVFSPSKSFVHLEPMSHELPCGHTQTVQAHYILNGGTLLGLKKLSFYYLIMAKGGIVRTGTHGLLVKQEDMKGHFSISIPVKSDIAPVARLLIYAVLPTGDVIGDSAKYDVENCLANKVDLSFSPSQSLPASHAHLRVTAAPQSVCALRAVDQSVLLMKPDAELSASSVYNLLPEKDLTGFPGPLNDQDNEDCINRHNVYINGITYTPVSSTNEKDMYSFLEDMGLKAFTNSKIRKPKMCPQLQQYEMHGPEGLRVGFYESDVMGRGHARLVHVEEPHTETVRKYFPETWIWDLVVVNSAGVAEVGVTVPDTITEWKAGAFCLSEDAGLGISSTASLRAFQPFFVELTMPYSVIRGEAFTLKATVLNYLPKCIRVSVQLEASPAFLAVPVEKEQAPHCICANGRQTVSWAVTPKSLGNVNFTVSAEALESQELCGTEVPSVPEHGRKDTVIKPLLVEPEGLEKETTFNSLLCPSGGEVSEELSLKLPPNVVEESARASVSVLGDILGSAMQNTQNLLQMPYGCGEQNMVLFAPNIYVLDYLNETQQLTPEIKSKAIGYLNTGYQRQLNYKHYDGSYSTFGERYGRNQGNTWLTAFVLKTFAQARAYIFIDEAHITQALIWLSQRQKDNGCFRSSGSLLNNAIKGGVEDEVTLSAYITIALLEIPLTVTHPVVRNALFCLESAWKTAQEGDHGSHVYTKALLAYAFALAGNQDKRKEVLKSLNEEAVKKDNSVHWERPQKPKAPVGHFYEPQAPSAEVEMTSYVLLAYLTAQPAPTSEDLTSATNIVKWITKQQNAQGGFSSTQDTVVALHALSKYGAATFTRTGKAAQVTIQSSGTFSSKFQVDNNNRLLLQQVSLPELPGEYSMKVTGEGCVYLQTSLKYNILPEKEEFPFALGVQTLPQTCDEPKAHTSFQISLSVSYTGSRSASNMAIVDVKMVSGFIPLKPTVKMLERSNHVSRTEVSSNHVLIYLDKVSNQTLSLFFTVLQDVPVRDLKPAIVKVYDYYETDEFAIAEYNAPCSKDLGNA
Nature of the test: Gel filtration of 3H-arachidonic acid with native α2M. The format is binding. The following applies: 100 μM 3H-arachidonic acid. The protocol: The interaction of ^3H-arachidonic acid and α2M* was determined using gel filtration. ^3H-arachidonic acid was incubated with native ? 2M or ? 2M*, which was activated by methylamine. After incubation at room temperature for 30 min, the reaction mixture was subjected to gel filtration chromatography on Sephacryl® S-300 HR. The ^3H-arachidonic acid radioactivity and concentrations of. α2M* or native ? 2M in the eluents were determined by scintillation counting and 5% SDS-PAGE followed by Coomassie blue staining, respectively. […] The small peak, which appeared in the flow-through fractions, contained the ^3H-arachidonic acid- ? 2M* complex and free ? 2M*, which was identified by Coomassie blue staining (FIG. 5, inset). The subsequent large peak, which appeared in the column bed volume fractions, was identified as free ^3H-arachidonic acid.
Gel Filtration of ^3H-arachidonic acid-α2M* Complexes—The reaction mixture contained 100 μM ^3H-arachidonic acid with or without 10 μg of ? 2M*, which was activated by methylamine and plasmin as described previously (12,22), or native ? […] The column was then eluted with the same phosphate buffer and the fractional volume was ˜1 ml, 20 μl of which was counted with a scintillation counter and an another 20 μl of which was analyzed by SDS-PAGE followed by Coomassie blue staining (to locate fractions containing. α2M* or native ? 2M).
In general terms: SEC sorts molecules by how far they enter the pores of the column.

Test [1] relates to p3TP-Lux in transfected Mv1Lu cells. Nature of the test: Luciferase assay, p3TP-Lux TGF-β-responsive promoter construct. The format is cell-based, mink. The following applies: for reversal of α2M* inhibition of TGF-β2-induced luciferase activity: 200 μg/ml α2M*. The protocol: One of the prominent biological activities of TGF- ? is transcriptional activation of plasminogen activator inhibitor-1 (PAI-1) and fibronectin (1-4). The effect of fatty acids on the inhibition by. α2M* of a TGF- ? -responsive promoter construct p3TP-Lux was determined in transfected Mv1Lu cells. The p3TP-Lux contains the PAI-1 promoter and 3 repeats of a phorbol-12-myristate-13-acetate (TPA)-responsive element (29).
Luciferase Assay—Mv1Lu cells which had been plated on 12-well clustered dishes at a cell density of approximately 0.8-1.0×10^5 cells/plate were transfected with 4-6 μg of p3TP-Lux using the calcium phosphate method (24). After 12 hr, the transfected cells were washed with phosphate buffered saline and allowed to grow in a medium containing 10% fetal calf serum for 12 hr. The medium was changed to DMEM with low serum concentration (0.2% fetal calf serum) and the cells were incubated for 4-6 hr. The cells were then treated for 20 hr with TGF-.β2 (0, 50 or 100 pM), α2M* (0 or 200 μg/ml) and arachidonic acid (0, 12.5 or 25 μM) in the same low-serum medium. The cells were harvested and assayed for luciferase activity using the Promega kit according to the manufacturer's protocol. The luciferase activity was assayed in triplicate cell cultures and measured as arbitrary units (A.U.).

For `CCCCC/C=C\C/C=C\C/C=C\C/C=C\CCCC(=O)O` [arachidonic acid], the “complex formation with native α2M” value on native α2M is “no complex formation”. Moreover, the “reversal of α2M* inhibition of TGF-β2-induced luciferase activity” value in test [1] (12.5 μM arachidonic acid) and in test [1] (25 μM arachidonic acid) was “completely reversed” in each case. In addition, the “effect on luciferase activity in cells treated with and without TGF-β2 in the absence of α2M*” value in test [1] (12.5 and 25 μM, absence of α2M*) was “did not influence the luciferase activity”.
